US20220411525A1, “BCMA AS A TARGET FOR T CELL REDIRECTING ANTIBODIES IN B CELL LYMPHOMAS” (Janssen Pharmaceutica NV, priority 2021, published 2022)
Where “and” joins values, the source holds several entries; their conditions need not be identical. Identical values can stand only once.

Experiments:
[1] = tested on: T cells of healthy donor PBMCs; experiment: Activation, degranulation and cytokine production of healthy donor T cells co-cultured with B cell malignancy cell lines; type: cell-based, human
Description: (§1) Since the different B cell malignancy cell lines express BCMA to different extents, it was explored whether co-culture of these cell lines with the BCMAxCD3 BsAb Teclistamab in presence of HD PBMCs would lead to activation of T cells. To assess this, 4 cell lines were selected based on previously determined BCMA levels: RPMI-8226 (MM, positive control; high BCMA), BCWM.1 (WM, high BCMA), CII (CLL, intermediate BCMA) and JeKo-1 (MCL, low BCMA). Cell lines and age-matched HD PBMCs were cultured in presence of 100 ng/mL Teclistamab or the control BsAbs (BCMAxnull or nullxCD3) with or without 100 nM γ-secretase inhibitor. As a positive control, anti-CD3/CD28 antibodies were added to the co-cultures to induce TCR stimulation.
(§2) FIGS. 4A-4G provide the results of the assessment, which are that BCMAxCD3 DuoBody® induces activation, degranulation, cytokine secretion and cytotoxicity by T cells in the presence of B cell malignancy cell lines. PBMCs of healthy donors were left unstimulated or stimulated with 100 ng/mL BCMAxCD3 DuoBody®, BCMAxnull, nullxCD3 or anti-CD3/CD28 antibodies. Cells were left untreated (−) or treated with 100nM γ-secretase inhibitor (+). T cells were co-cultured with cell lines RPMI-8226 (multiple myeloma), JeKo-1 (mantle cell lymphoma), BCWM.1 (Waldenstrom's macroglobulinemia) or CII (chronic lymphocytic leukemia) in a 1:1 E:T ratio. After 48 hours activation by CD25 (FIG. 4A), degranulation (FIG. 4B), secretion of IFNy (FIG. 4D), IL-2 (FIG. 4E), TNFα (FIG. 4F), and cytotoxicity (FIG. 4G) were measured by flow cytometry (n=3-14). 4 days after incubation T cell proliferation was assessed by FACS (FIG. 4C) (n=3-9).
(§3) Activation, cytokine production and degranulation. PBMCs from HD or CLL patients were incubated in the presence of 100 ng/mL BCMAxCD3, BCMAxnull or nullxCD3 or stimulated with CD3 (clone 1XE) and CD28 (clone 15E8) antibodies for 2 days. Where indicated HD PBMCs were co-cultured in a 1:1 E:T ratio with RPMI-8226, JeKo-1, CII or BCWM1. 100 nM γ-secretase inhibitor (Ly411575) was added where indicated. […]

autologous CLL cells = experiment: Cytotoxicity assay, CLL derived T cells co-cultured with autologous CLL cells; type: cell-based, human; details: 96 h, 5:1 E:T
Description: (§4) It was also assessed whether Teclistamab would induce activation and cytotoxicity of CLL derived T cells. To assess activation and degranulation, full PBMCs of CLL patients were treated with 100 ng/mL Teclistamab or control BsAbs for 96 h with or without presence of γ-secretase inhibition. […] For FIGS. 6A-6, CLL PBMCs were stimulated with 100 ng/mL BCMAxCD3, BCMAxnull, nullxCD3 or anti-CD3/CD28 antibodies. Flow cytometry analysis of (FIG. 6A) CD25 and (FIG. 6B) CD107a were performed after 4 days (n=3-5). For FIG. 6C, T cells from CLL patients were isolated and co-cultured in a 5:1 E:T ratio with their autologous CLL for 96 h in the presence or absence of 100 ng/mL BCMAxCD3 DuoBody and were left untreated (−) or treated with 100 nM γ-secretase inhibitor (+). (n=6) The P value was calculated ordinary one-way ANOVA (FIGS. 6A-6B) or paired t test (FIG. 6C). Data are presented as mean±SD. *P<0.05; **P<0.01; ***P<0.001; ****P<0.0001.
(§5) Cytotoxicity assay. […] Viability of the target cells was assessed using TO-PRO-3 (Invitrogen) and MitoTracker Orange (Invitrogen) using Flow Cytometry. Specific lysis of target cells was calculated as (% target cell death in treated sample—% cell death target cells in medium control)/(100—% cell death target cells in medium control)*100%. […]

CLL derived T cells = experiment: Activation and degranulation of CLL derived T cells in CLL PBMCs; type: cell-based, human; details: 96 h
Description: as §4, §3

[2] = tested on: T cells of healthy donor PBMCs; experiment: T cell proliferation of healthy donor PBMCs co-cultured with cell lines; type: cell-based, human; details: co-culture of HD T cells with B cell malignancy cell lines, 4 days
Description: as §2
T cell proliferation. PBMCs from HD patients were labelled with CTV and cultured alone or in 1:1 E:T ratio with RPMI-8226, JeKo-1, CII or BCWM1. PBMCs were incubated in the presence of 100 ng/mL BCMAxCD3, BCMAxnull or nullxCD3 or stimulated with CD3 (clone 1XE) and CD28 (clone 15E8) antibodies. 100 nM γ-secretase inhibitor (Ly411575) was added where indicated. After 4 days proliferation was measured by flow cytometry as described above.

[3] = tested on: B cell malignancy cell lines (RPMI-8226, JeKo-1, BCWM.1, CII); experiment: Cytotoxicity assay, cell lines co-cultured with healthy donor PBMCs; type: cell-based
Description: as §1, §2, §5

primary CLL cells = experiment: Cytotoxicity assay, primary CLL cells co-cultured with healthy donor T cells; type: cell-based, human; details: for average lysis of CLL cells: 48 h; for average lysis of CLL cells / average cell death of CLL cells: 10:1 E:T, per T cell donor; for average cell death of CLL cells: 96h
Description: Since primary CLL samples express BCMA at even lower levels compared to JeKo-1 cell lines, the present inventors explored whether this expression level was still high enough to induce effective lysis of CLL cells. To assess this HD T cells were co-cultured for 48-96 h with primary CLL cells in the presence of 100 ng/mL of Teclistamab with or without 100 nM γ-secretase inhibitor.
FIGS. 5A-5C illustrate how healthy donor T cells kill primary CLL cells in presence of BCMAxCD3 DuoBody, which is largely dependent on CD8^+ T cells. Measurement of cytotoxicity after PBMCs of healthy donors were left unstimulated or stimulated with 100 ng/mL BCMAxCD3 DuoBody®, in the absence (−) or presence (+) of 100 nM γ-secretase inhibitor. PBMCs were T cells were co-cultured with primary CLL in a 10:1 E:T ratio for (FIG. 5A) 48 h or (FIG. 5B) 96 h. […] (n=8) The P value was calculated by Wilcoxon test (FIG. 5A), paired t test (FIG. 5B) or repeated measures one-way ANOVA (FIG. 5C). Data are presented as mean±SD. *P<0.05; **P<0.01; ***P<0.001.
Cytotoxicity assay. Cell lines or primary CLL samples were labelled with Cell Trace Violet (CTV, Thermo Fisher Scientific) or carboxyfluorescein diacetate succinimidyl ester (CFSE, ThermoFisher Scientific) according to manufacturer's instructions and co-cultured with healthy donor PBMCs or CLL derived (autologous) T cells in different effector-target (E:T) ratios. Where indicated prior to co-culture CD4 and CD8 T cells were isolated using MACS beads (Miltenyi), according to manufacturer's instructions. Co-cultures were in the presence of 100 ng/mL BCMAxCD3, BCMAxnull or nullxCD3. 100nM γ-secretase inhibitor (Ly411575) was added where indicated. Viability of the target cells was assessed using TO-PRO-3 (Invitrogen) and MitoTracker Orange (Invitrogen) using Flow Cytometry. Specific lysis of target cells was calculated as (% target cell death in treated sample—% cell death target cells in medium control)/(100—% cell death target cells in medium control)*100%. Samples were excluded when cell death in medium controls exceeded 50%.

[4] = 100 ng/mL plus 100 nM γ-secretase inhibitor
[5] = 100 ng/mL, no γ-secretase inhibitor
[6] = 100 ng/mL, with 100 nM γ-secretase inhibitor

Q: For “Teclistamab: BCMAxCD3 bispecific antibody developed with Genmab DuoBody technology, provided by Janssen Pharmaceuticals”, which “T cell activation and proliferation upon increasing BCMA levels by γ-secretase inhibition” value [1, 4] is on record?
A: not further enhanced

Q: And the “activation marker CD25 on CD4+ and CD8+ T cells” value ([1]; 100 ng/mL, 2 days co-culture with cell lines, 1:1 E:T)?
A: upregulation of the activation marker CD25

Q: And the “CD25 on T cells, PBMCs cultured without a target cell” value ([1]; 100 ng/mL, no target cell)?
A: did not lead to upregulation of CD25

Q: And the “lysis of autologous CLL cells upon addition of γ-secretase inhibition” value (autologous CLL cells; [4])?
A: slightly increased

Q: What about the “mean lysis of autologous CLL cells” value (autologous CLL cells; [5]) of the same substance?
A: 40%

Q: What about the “CD25 activation in T cells of CLL patients upon addition of γ-secretase inhibitor” value (CLL derived T cells; 100 ng/mL plus γ-secretase inhibitor) of the same substance?
A: enhanced

Q: And the “CD25 activation in CD4+ and CD8+ T cells of CLL patients” value (CLL derived T cells; 100 ng/mL, CLL PBMCs)?
A: trend towards increased CD25 activation

Q: And the T cell proliferation [2]?
A: resulted in T cell activation, proliferation and cytotoxicity

Q: And the “cytotoxicity upon addition of γ-secretase inhibitor” value [3, 4]?
A: did not improve

Q: What about the “lysis of JeKo-1 compared to BCWM.1 or CII cell lines” value ([3]; 100 ng/mL, JeKo-1 (low BCMA)) of the same substance?
A: more efficiently lysed

Q: And the “cell death of target cells” value ([3]; 100 ng/mL, co-culture with HD T cells, 1:1 E:T, 48 hours)?
A: induced cell death of target cells

Q: And the “average lysis of CLL cells” value (primary CLL cells; [5])?
A: 12.9% and 16.4%

Q: And the “average lysis of CLL cells” value (primary CLL cells; [6])?
A: 14.9% and 21.6%

Q: What about the “killing by HD CD4+ T cells” value (primary CLL cells; 100 ng/mL, 96 h, 5:1 E:T, CD4+ T cells only) of the same substance?
A: not able to induce killing

Q: And the “lysis by HD CD8+ T cells” value (primary CLL cells; 100 ng/mL, 96 h, 5:1 E:T, CD8+ T cells)?
A: up to 60%

Q: What about the “average cell death of CLL cells” value (primary CLL cells; [5]) of the same substance?
A: 15.8% and 20%

Q: What about the “average cell death of CLL cells” value (primary CLL cells; [6]) of the same substance?
A: 25,8% and 27.4%

Q: And the “lysis of CLL cells by healthy donor T cells” value (primary CLL cells; summary statement, in presence of teclistamab)?
A: up to 40%
